Several values for one entry are separate records, joined by “and”; a condition that tells them apart may be missing. Equal values may be shown once. Toxic doses and inconclusive results are not listed. Rule for the calls: active = survival T/C of 150% or more; inactive = T/C below 125% in these data.
System: P388 leukemia ip, CD2F1 mice, survival T/C
Experiment: NCI In Vivo Anticancer Drug Screen. Data for tumor model P388 Leukemia (intraperitoneal) in CD2F1 (CDF1) mice
Conditions: endpoint: median survival time, higher = longer survival
How it was run: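 Mice carrying the transplanted tumor received test compound or vehicle. Survival was recorded in each group, and the value is the treated-group measurement divided by that of the vehicle-treated control group.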

[1] = dose: 50.0 mg/kg/injection, schedule: Q01DX005 (ip), vehicle: Klucel (hydroxypropylcellulose) (HPC)
[2] = dose: 100.0 mg/kg/injection, schedule: Q01DX005 (ip), vehicle: Klucel (hydroxypropylcellulose) (HPC)
[3] = dose: 200.0 mg/kg/injection, schedule: Q01DX005 (ip), vehicle: Klucel (hydroxypropylcellulose) (HPC)
[4] = dose: 50.0 mg/kg/injection, schedule: Q01DX009 (ip), vehicle: saline
[5] = dose: 100.0 mg/kg/injection, schedule: Q01DX009 (ip), vehicle: saline
[6] = dose: 200.0 mg/kg/injection, schedule: Q01DX009 (ip), vehicle: saline
[7] = dose: 50.0 mg/kg/injection, schedule: Q01DX005 (ip), vehicle: saline with Tween-80
[8] = dose: 100.0 mg/kg/injection, schedule: Q01DX005 (ip), vehicle: saline with Tween-80
[9] = dose: 200.0 mg/kg/injection, schedule: Q01DX005 (ip), vehicle: saline with Tween-80
[10] = dose: 60.0 mg/kg/injection, schedule: Q01DX005 (ip), vehicle: saline with Tween-80
[11] = dose: 120.0 mg/kg/injection, schedule: Q01DX005 (ip), vehicle: saline with Tween-80
[12] = dose: 240.0 mg/kg/injection, schedule: Q01DX005 (ip), vehicle: saline with Tween-80
[13] = dose: 12.5 mg/kg/injection, schedule: Q01DX005 (ip), vehicle: saline
[14] = dose: 25.0 mg/kg/injection, schedule: Q01DX005 (ip), vehicle: saline
[15] = dose: 50.0 mg/kg/injection, schedule: Q01DX005 (ip), vehicle: saline
[16] = dose: 25.0 mg/kg/injection, schedule: Q01DX009 (ip), vehicle: saline with Tween-80
[17] = dose: 50.0 mg/kg/injection, schedule: Q01DX009 (ip), vehicle: saline with Tween-80
[18] = dose: 37.5 mg/kg/injection, schedule: Q01DX009 (ip), vehicle: saline with Tween-80

Measured: T/C

COc1cc2c(cc1OC)C(=O)OC(=O)C2
inactive: [1] 100 % of control | [2] 92 % of control | [3] 95 % of control

CCN1CNC(=O)NC1
inactive: [4] 112 % of control | [5] 111 % of control | [6] 100 % of control | dose: 400.0 mg/kg/injection, schedule: Q01DX009 (ip), vehicle: saline 118 % of control

O=C(Nc1ccccc1)OC(CS(=O)(=O)c1ccccc1)C(Cl)(Cl)Cl (stereo not given)
inactive: [7] 92 % of control | [8] 96 % of control | [9] 95 % of control

Cc1ccc2c(c1)C1(SC(C)C(=O)N1c1ccc(I)cc1)C(=O)N2 (stereo not given)
inactive: [10] 103 % of control | [11] 94 % of control | [12] 91 % of control

CCS(=O)(=O)C(C(O)C(O)C(O)C(C)O)S(=O)(=O)CC (stereo not given)
inactive: [4] 100 % of control | [5] 100 % of control | [6] 96 % of control

CCCCC(CC)C(=O)N1CCOCC1 (stereo not given)
inactive: dose: 100.0 mg/kg/injection, schedule: Q04DX003 (ip), vehicle: saline with Tween-80 100 % of control | dose: 200.0 mg/kg/injection, schedule: Q04DX003 (ip), vehicle: saline with Tween-80 100 % of control | dose: 400.0 mg/kg/injection, schedule: Q04DX003 (ip), vehicle: saline with Tween-80 100 % of control

CCCCCCCCCCCCCCCc1ccc(C(=O)C[n+]2ccccc2)cc1
inactive: dose: 6.25 mg/kg/injection, schedule: Q04DX003 (ip), vehicle: saline with Tween-80 109 % of control | dose: 12.5 mg/kg/injection, schedule: Q04DX003 (ip), vehicle: saline with Tween-80 118 % of control | dose: 16.5 mg/kg/injection, schedule: Q04DX003 (ip), vehicle: saline with Tween-80 95 % of control | dose: 25.0 mg/kg/injection, schedule: Q04DX003 (ip), vehicle: saline with Tween-80 100 % of control

N#Cc1ccc(OC(=O)Nc2c(Cl)cc(Cl)cc2Cl)cc1
inactive: [10] 100 % of control | [11] 92 % of control

O=C1C(=C(Cl)Cl)C(=O)c2ccccc21
inactive: [13] 103 % of control | [14] 100 % of control | [1] 91 % of control | [15] 95 % of control

Cn1cnc([N+](=O)[O-])c1Sc1ccncn1
inactive: dose: 25.0 mg/kg/injection, schedule: Q01DX009 (ip), vehicle: saline 101 % of control and 105 % of control | [4] 99 % of control and 103 % of control and 114 % of control | [5] 103 % of control and 118 % of control | [6] 112 % of control and 116 % of control

Cc1ccccc1N=Nc1ccc(N=Nc2cc(CN(C)C)c(O)c3ncccc23)c(C)c1
inactive: [7] 102 % of control | [8] 95 % of control | [9] 109 % of control

CCOC(=O)C1(CN2C(=O)c3ccccc3C2=O)C(=O)Nc2ccccc21 (stereo not given)
inactive: dose: 50.0 mg/kg/injection, schedule: Q01DX009 (ip), vehicle: Klucel (hydroxypropylcellulose) (HPC) 87 % of control | dose: 100.0 mg/kg/injection, schedule: Q01DX009 (ip), vehicle: Klucel (hydroxypropylcellulose) (HPC) 87 % of control | dose: 200.0 mg/kg/injection, schedule: Q01DX009 (ip), vehicle: Klucel (hydroxypropylcellulose) (HPC) 87 % of control

CS/C(=C/c1ccc2ccccc2[n+]1C)N1CCCC1
inactive: dose: 0.1 mg/kg/injection, schedule: Q01DX005 (ip), vehicle: saline 103 % of control | dose: 0.2 mg/kg/injection, schedule: Q01DX005 (ip), vehicle: saline 99 % of control | dose: 0.4 mg/kg/injection, schedule: Q01DX005 (ip), vehicle: saline 100 % of control | dose: 0.78 mg/kg/injection, schedule: Q01DX005 (ip), vehicle: saline 116 % of control | dose: 1.56 mg/kg/injection, schedule: Q01DX005 (ip), vehicle: saline 111 % of control

COc1ccc(CCNC(=O)CC2CC(=O)N(CCc3ccc(OC)c(OC)c3)C(=O)C2)cc1OC
inactive: [1] 101 % of control | [2] 98 % of control | [3] 101 % of control

CC(C)=CCN=c1ncn(CCC(N)C(=O)O)c2nc[nH]c12 (stereo not given)
inactive: dose: 3.0 mg/kg/injection, schedule: Q01DX009 (ip), vehicle: Klucel (hydroxypropylcellulose) (HPC) 109 % of control | dose: 6.0 mg/kg/injection, schedule: Q01DX009 (ip), vehicle: Klucel (hydroxypropylcellulose) (HPC) 105 % of control | dose: 12.0 mg/kg/injection, schedule: Q01DX009 (ip), vehicle: Klucel (hydroxypropylcellulose) (HPC) 115 % of control | dose: 24.0 mg/kg/injection, schedule: Q01DX009 (ip), vehicle: Klucel (hydroxypropylcellulose) (HPC) 118 % of control | dose: 48.0 mg/kg/injection, schedule: Q01DX009 (ip), vehicle: Klucel (hydroxypropylcellulose) (HPC) 108 % of control

COc1cc(-c2nn(CN3CCN(Cn4nc(-c5cc(OC)c(OC)c(OC)c5)oc4=S)CC3)c(=S)o2)cc(OC)c1OC
inactive: [1] 97 % of control | [2] 87 % of control | [3] 93 % of control

COc1ccc2c(c1)C1CCN(C)CC1OC2=O (stereo not given)
inactive: dose: 12.5 mg/kg/injection, schedule: Q01DX009 (ip), vehicle: saline with Tween-80 92 % of control | [16] 98 % of control | [17] 100 % of control and 104 % of control

COc1cc2c(cc1OC)C(CCCCCCCC1NCCc3cc(OC)c(OC)cc31)NCC2 (stereo not given)
inactive: [13] 102 % of control | [14] 96 % of control | [15] 100 % of control and 101 % of control

N#CCCC1CS1 (stereo not given)
inactive: dose: 18.75 mg/kg/injection, schedule: Q01DX009 (ip), vehicle: saline with Tween-80 103 % of control | [18] 108 % of control | dose: 75.0 mg/kg/injection, schedule: Q01DX009 (ip), vehicle: saline with Tween-80 109 % of control

CCOc1ccc(N=Nc2c(O)n(-c3ccc(Br)cc3)c(=S)n(-c3ccc(OC)cc3)c2=O)cc1
inactive: dose: 100.0 mg/kg/injection, schedule: Q04DX002 (ip), vehicle: saline with Tween-80 91 % of control | dose: 200.0 mg/kg/injection, schedule: Q04DX002 (ip), vehicle: saline with Tween-80 91 % of control | dose: 400.0 mg/kg/injection, schedule: Q04DX002 (ip), vehicle: saline with Tween-80 94 % of control

[O-]/[N+](=N/O)C(c1ccccc1)c1ccccc1
inactive: dose: 3.0 mg/kg/injection, schedule: Q01DX005 (ip), vehicle: Klucel + Tween-80 104 % of control | dose: 6.0 mg/kg/injection, schedule: Q01DX005 (ip), vehicle: Klucel + Tween-80 98 % of control | dose: 12.0 mg/kg/injection, schedule: Q01DX005 (ip), vehicle: Klucel + Tween-80 100 % of control | dose: 24.0 mg/kg/injection, schedule: Q01DX005 (ip), vehicle: Klucel + Tween-80 97 % of control

COc1cc(C2c3cc4c(cc3OC(C)(O)C2C(C)=O)OCO4)cc(OC)c1OC (stereo not given)
inactive: [10] 87 % of control | [11] 94 % of control | [12] 100 % of control

Cc1cc2c(C)c(-c3ccccc3)c(=O)oc2c(C#N)c1C
inactive: dose: 15.0 mg/kg/injection, schedule: Q01DX005 (ip), vehicle: Klucel (hydroxypropylcellulose) (HPC) 104 % of control | dose: 30.0 mg/kg/injection, schedule: Q01DX005 (ip), vehicle: Klucel (hydroxypropylcellulose) (HPC) 95 % of control | dose: 60.0 mg/kg/injection, schedule: Q01DX005 (ip), vehicle: Klucel (hydroxypropylcellulose) (HPC) 90 % of control and 95 % of control

CCNc1ncc2c(n1)N(CC)C(=O)/C(=C\C(=O)OC)N2
inactive: [18] 94 % of control | dose: 150.0 mg/kg/injection, schedule: Q01DX009 (ip), vehicle: saline with Tween-80 93 % of control

CC(/C=N/Nc1ccccc1)=N\N=c1/scc(-c2ccc(Br)cc2)n1-c1ccc(C)cc1
inactive: dose: 100.0 mg/kg/injection, schedule: Q01DX001 (ip), vehicle: saline with Tween-80 88 % of control | dose: 400.0 mg/kg/injection, schedule: Q01DX001 (ip), vehicle: saline with Tween-80 86 % of control

CC1CN1C1=C(F)C(=O)C(N2CC2C)=C(F)C1=O (stereo not given)
inactive: dose: 1.56 mg/kg/injection, schedule: Q01DX009 (ip), vehicle: Klucel (hydroxypropylcellulose) (HPC) 104 % of control | dose: 3.12 mg/kg/injection, schedule: Q01DX009 (ip), vehicle: Klucel (hydroxypropylcellulose) (HPC) 106 % of control and 110 % of control and 116 % of control | dose: 6.25 mg/kg/injection, schedule: Q01DX009 (ip), vehicle: Klucel (hydroxypropylcellulose) (HPC) 105 % of control and 123 % of control

O=C(Nc1ccc(S(=O)(=O)F)cc1)Oc1ccc([N+](=O)[O-])cc1
inactive: [10] 121 % of control | [11] 101 % of control | [12] 86 % of control

COc1cc2ccnc(C=O)c2cc1OC
inactive: [16] 110 % of control | [17] 110 % of control | dose: 100.0 mg/kg/injection, schedule: Q01DX009 (ip), vehicle: saline with Tween-80 107 % of control
